For assay [1], the system named is claudin-1. The assay is described as follows: Western blot of claudin-1 protein in primary human keratinocytes. The conditions noted are these: 50 ng/ml; for claudin-1 expression over control: 48 hours, differentiating PHK, n=3; for claudin-1 expression by Western blot: PHK differentiated 48 h. The assay is classed as cell-based. The method, then:
Human keratinocytes were isolated from neonatal foreskin. Poumay et al., “Basal Detachment of the Epidermis Using Dispase: Tissue Spatial Organization and Fate of Integrin Alpha 6 Beta 4 and Hemidesmosomes,” J. Invest. Dermatol. 102:111-7 (1994), which is hereby incorporated by reference in its entirety. PHK were cultured in Keratinocyte-SFM (Invitrogen/Gibco) with 1% Pen/Strep, 0.2% Amphotericin B (Invitrogen/Gibco). To differentiate PHK, cells were grown in DMEM (Invitrogen/Gibco) with 10% heat-inactivated fetal bovine serum (Invitrogen/Gibco) and 1% Pen/Strep, 0.2% Amphotericin B (Invitrogen/Gibco). For TJ modulation experiments, the following cytokines were added alone or in combination to the differentiation media; human IL-4 (50 ng/ml; R&D system) and IL-13 (50 ng/ml; R&D system).
PHK were lysed on ice in RIPA lysis buffer (20 mM Tris, 50 mM NaCl, 2 mM EDTA, 2 mM EGTA, 1% sodium deoxycholate, 1% TX-100, and 2% SDS, pH 7.4), with 1:100 Protease Inhibitor Cocktail (Sigma), 1:100 Phosphatase Inhibitor Cocktail ([…] for 30 min at 4° C. The samples were heated at 95° C. for 10 min and then centrifuged at 14,000 rpm for 15 min. Forty μg of protein, determined by BCA (Pierce) in NuPage LDS Sample Buffer (Invitrogen) was applied to 4-12% NuPage Bis-Tris gels (Invitrogen). Electrophoresis was performed under reducing conditions with MES SDS Buffer (Invitrogen). Membranes were incubated in blotting solution (5% non-fat dry milk in PBS+0.05% Tween 20) at RT for 1 h and then incubated with primary antibodies; claudin-1 (JAY.8; Zymed), occludin (OC/3F10; Zymed) and GAPDH (FL-355; Santa Cruz). An HRP-linked secondary antibody (GE Healthcare) was used with ECL (GE Healthcare) to visualize bands by autoradiography with Kodak BioMax MR film. The pixel intensity of each band was estimated with Image J.
(§1) PHK were plated on glass coverslips at 2-3×10^5 cells/well in a 6-well plate or at 2-3×10^4 cells/filter in Transwell insert (Costar; PET membrane, 0.4 μm pore size, 6.5 mm insert) in Keratinocyte-SFM without antibiotics. The next day after plating, cells were transfected with claudin-1 specific or control (scrambled) siRNAs (Santa Cruz) using Lipofectamine™ 2000 transfection Reagent (Invitrogen). TEER and permeability experiments were conducted 48 hours after PHK were switched to differentiation media.
(Immunoblotting shows a protein as a band on a membrane.)

The subject of assay [2] is primary human keratinocytes (PHK). As to the kind of experiment: Trans Epithelial Electric Resistance (TEER) in PHK monolayers. The assay is classed as cell-based. The method, then:
PHK were plated at a subconfluent density of 2.5−3×10^4 cells/filter in Transwell insert and cultured in Keratinocyte-SFM media until confluent. TEER was measured using an EVOMX voltohmmeter (World Precision Instruments, Sarasota, Fla.). The resistance of cell-free filters was subtracted from each experimental value.
as §1
TEER was measured in PHK as described above. PHK were stimulated with S. aureus-derived peptidoglycan (PGN, 0.2-20 μg/ml, n=3-7) (FIG. 19A), Malp-2 (10-1000 ng/ml, n=3) (FIG. 19B), and Pam3CSK4 a TLR1/2 ligand (0.01-20 μg/ml, n=3-6) (FIG. 19C). Data are presented by analyzing the area under the TEER curve and normalized to the mean values for the control group (media alone)*p<0.05; **p<0.01.

The subject of assay [3] is occludin and ZO-1. As to the kind of experiment: Expression of occludin and ZO-1 in PHK differentiated with Th2 cytokines. To be noted: PHK differentiated with cytokine. The assay is classed as cell-based, human. The method, then: Human keratinocytes were isolated from neonatal foreskin. Poumay et al., “Basal Detachment of the Epidermis Using Dispase: Tissue Spatial Organization and Fate of Integrin Alpha 6 Beta 4 and Hemidesmosomes,” J. Invest. Dermatol. 102:111-7 (1994), which is hereby incorporated by reference in its entirety. PHK were cultured in Keratinocyte-SFM (Invitrogen/Gibco) with 1% Pen/Strep, 0.2% Amphotericin B (Invitrogen/Gibco). To differentiate PHK, cells were grown in DMEM (Invitrogen/Gibco) with 10% heat-inactivated fetal bovine serum (Invitrogen/Gibco) and 1% Pen/Strep, 0.2% Amphotericin B (Invitrogen/Gibco). For TJ modulation experiments, the following cytokines were added alone or in combination to the differentiation media; human IL-4 (50 ng/ml; R&D system) and IL-13 (50 ng/ml; R&D system). […]
Previous studies have shown that claudin-1 expression in noncutaneous epithelial cells can be modulated by cytokines and growth factors. […] To test this possibility, PHK were differentiated in the presence or absence of Th2 cytokines, IL-4 and IL-13, and the expression of claudin-1, occludin and ZO-1 was evaluated. […]

Assay [4] relates to CLDN1 mRNA. As to the kind of experiment: qPCR of CLDN1 mRNA in PHK treated with PPARγ agonist. The conditions noted are these: 5 μM, PHK differentiated in high Calcium media (DMEM) 24 h. The format is cell-based, human. The method, then:
(§2) PHK were differentiated in high Calcium media (DMEM) in the presence of CIG 5 μM in DMSO or media with equivalent amount of DMSO alone, for 24 h. Total RNA was extracted from PHK using the QlAshredder spin column (Qiagen) and RNeasy RNA isolation kits (Qiagen). The quality of total RNA samples (RNA Integrity Number, RIN) was assessed using an Agilent 2100 Bioanalyzer (Agilent Technologies, Palo Alto, Calif.).
(§3) qPCR was performed using the iScript™ cDNA Synthesis kit and iQ™ SYBER Green Supermix assay system (Bio-Rad Laboratories). All PCR amplifications were carried out in triplicate on an iQ5 Multicolor real-time PCR detection system (Bio-Rad). Primers were designed and synthesized by Integrated DNA Technologies. Relative gene expression was calculated by using the 2^−ΔΔCt method, as previously described. The normalized Ct value of each sample was calculated using GAPDH as an endogenous control gene.
On the technique in general: In qPCR the cycle at which signal appears reflects the starting amount.

The test system of assay [5] is occludin mRNA. The assay is described as follows: qPCR of occludin mRNA in PHK treated with PPARγ agonist. The format is cell-based, human. The conditions noted are these: 5 μM, PHK differentiated in high Calcium media (DMEM) 24 h. The method, then: as §2, §3
Assay [6] has as its system human epidermis sheet. As to the kind of experiment: TEER in human epidermal sheets (snap-well system). The conditions noted are these: 1 mM; for TEER, dmem + SC_1 / TEER, dmem + SC_2 / TEER, mean SC: T0 = 1.00. An excerpt: Epidermal sheets were obtained from discarded human skin using a weck blade (0.08 inch). Epidermal samples were mounted in an adapted snap-well system (Pierro et al., “Zonula Occludens Toxin Structure-Function Analysis, Identification of the Fragment Biologically Active on Tight Junctions and of the Zonulin Receptor Binding Domain,” J. Biol.

Assay [7] relates to human cultured keratinocytes and reconstructed human epidermis. The conditions noted are these: literature (Kurasawa et al. 2009); cited from earlier work.

Here are results for five molecules from US20130045267A1, “METHODS OF USING AGENTS THAT MODULATE CLAUDIN EXPRESSION” (priority 2010, published 2013).

In the case of “IL-13: human IL-13 (R&D system), Th2 cytokine”, in assay [1], the “claudin-1 expression over control” value amounted to 1.6±0.3 fold and the “claudin-1 expression by Western blot” value is listed as “enhanced expression of claudin-1”. For the same molecule, the “TEER, dose response” value in assay [2] (0.5-100 ng/ml, PHK) is “only a slight increase in TEER”. In addition, in assay [3], the “expression of occludin and ZO-1” value was “no effect”.

For `CC1(COc2ccc(CC3SC(=O)NC3=O)cc2)CCCCC1` (stereo not shown) [ciglitazone], the “CLDN1 mRNA expression over DMSO alone” value in assay [4] was 1.7 fold. Besides, the “occludin mRNA expression” value in assay [5] worked out at 2.0 fold; in assay [5] (listed as CIG), 2 fold.

Take `CCCCCCCCCC(=O)[O-].[Na+]` [SC, Sodium Decanoate]: in assay [6] (4 h), the “TEER, dmem + SC_1” value is 0.79; the “TEER, dmem + SC_2” value is on record as 0.69; the “TEER, mean SC” value was 0.74. Also, in assay [6] (24 h), the “TEER, dmem + SC_1” value stood at 0.56; the “TEER, dmem + SC_2” value was found to be 0.51; the “TEER, mean SC” value amounted to 0.54. Besides, the “TEER over media alone” value in assay [6] (after 4 hours of treatment) came out at 0.74 fold. Also, the “TEER over media alone” value in assay [6] (after 24 hours) is on record as 0.54 fold. Moreover, in assay [7], the paracellular permeability entry is “increased paracellular permeability” and the transepithelial electrical resistance entry was “decreased transepithelial electrical resistance”.

As for Pam3CSK4 [reference compound], in assay [2] (PGN 0.2-20 μg/ml, Malp-2 10-1000 ng/ml, Pam3CSK4 0.01-20 μg/ml), the “tight junction function (area under the TEER curve normalized to media alone)” value is given as “increase tight junction function”.

B1: IL-4: human IL-4 (R&D system), Th2 cytokine (protein, UniProt P05112 25-153, looked up)
Interleukin-4: HKCDITLQEIIKTLNSLTEQKTLCTELTVTDIFAASKNTTEKETFCRAATVLRQFYSHHEKDTRCLGATAQQFHRHKQLIRFLKRLDRNLWGLAGLNSCPVKEANQSTLENFLERLKTIMREKYSKCSS
For the molecule B1, in assay [1], the “claudin-1 expression over control” value turned out to be 2.1±0.4 fold and the “claudin-1 expression by Western blot” value is on record as “enhanced expression of claudin-1”. In assay [2] (50 ng/ml, PHK, n=4), this molecule came in with a TEER peak of 166±24 Ohms×cm^2. Moreover, the “expression of occludin and ZO-1” value in assay [3] is “no effect”.
